Consider seven compounds from ChEMBL document CHEMBL1127854, “Bromobenzofuran-based non-peptide antagonists of angiotensin II: GR138950, a potent antihypertensive agent with high oral bioavailability” (J Med Chem, 1994).

The subject of data set [1] is Rattus norvegicus. The experiment in a line: Tested for […] antihypertensive activity in renal hypertensive rat at 1 mg/kg after 5 hr of oral administration. Format: functional.
In data set [2] the test system is Rattus norvegicus. Nature of the data set: Tested for […] antihypertensive activity in renal hypertensive rat at 1 mg/kg after 24 hr of oral administration. Format: functional.
Another data set addresses T1, Angiotensin II receptor (Rattus norvegicus, UniProt P29089+P25095+P35351).
T1 sequence (P29089 whole entry): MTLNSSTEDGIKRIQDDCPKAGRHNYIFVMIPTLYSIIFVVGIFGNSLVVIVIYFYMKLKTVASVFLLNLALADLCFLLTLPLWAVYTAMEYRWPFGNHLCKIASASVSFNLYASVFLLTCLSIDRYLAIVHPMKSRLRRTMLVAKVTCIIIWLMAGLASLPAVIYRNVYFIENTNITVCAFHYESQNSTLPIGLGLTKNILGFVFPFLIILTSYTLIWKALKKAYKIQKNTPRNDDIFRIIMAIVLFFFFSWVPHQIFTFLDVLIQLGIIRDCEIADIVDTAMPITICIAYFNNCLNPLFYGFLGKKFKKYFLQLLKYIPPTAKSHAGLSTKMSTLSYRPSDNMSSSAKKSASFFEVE
T1 sequence (P25095 whole entry): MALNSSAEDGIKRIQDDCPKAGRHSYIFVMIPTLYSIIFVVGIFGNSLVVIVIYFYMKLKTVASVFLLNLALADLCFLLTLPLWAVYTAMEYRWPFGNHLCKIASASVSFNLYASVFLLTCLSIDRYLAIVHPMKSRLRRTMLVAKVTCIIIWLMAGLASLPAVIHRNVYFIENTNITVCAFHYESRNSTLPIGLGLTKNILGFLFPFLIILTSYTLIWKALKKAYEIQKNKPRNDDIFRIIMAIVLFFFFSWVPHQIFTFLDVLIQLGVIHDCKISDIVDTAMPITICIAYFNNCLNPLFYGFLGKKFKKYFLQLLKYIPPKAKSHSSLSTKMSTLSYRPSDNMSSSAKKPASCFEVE
T1 sequence (P35351 whole entry): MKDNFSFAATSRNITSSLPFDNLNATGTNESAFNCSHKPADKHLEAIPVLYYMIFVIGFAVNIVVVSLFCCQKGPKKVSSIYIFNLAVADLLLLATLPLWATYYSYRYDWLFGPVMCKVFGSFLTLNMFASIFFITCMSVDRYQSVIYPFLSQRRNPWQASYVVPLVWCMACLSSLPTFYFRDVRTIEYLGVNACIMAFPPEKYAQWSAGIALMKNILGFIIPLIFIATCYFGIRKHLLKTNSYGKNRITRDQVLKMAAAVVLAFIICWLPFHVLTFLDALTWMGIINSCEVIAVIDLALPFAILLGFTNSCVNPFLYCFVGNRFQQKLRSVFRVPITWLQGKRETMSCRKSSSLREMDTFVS
The experiment in a line: Tested for in vitro binding affinity against angiotensin II receptor of rat liver.

The subject of data set [3] is Rattus norvegicus. The experiment in a line: Tested for […] antihypertensive activity in renal hypertensive rat at 1 mg/kg after 7 hr of oral administration. Format: functional.
Data set [4] is described as follows: Bioavailability in rat (dose 3-10 mg/kg). The settings on record: in vivo. It is filed as ADME, organism-based.
Data set [5] in a line: The compound was tested for volume of distribution in rat at dose of 3-10 mgkg. It is filed as ADME, organism-based. As to conditions: in vivo.
A short description of data set [6]: The compound was tested for plasma clearance in rat at dose of 3-10 mgkg. Format: ADME, organism-based.
The nature of data set [7]: Half-life in plasma of rat at dose of […]-[…] mgkg. Format: ADME, organism-based.
Data set [8] can be described thus: The compound was tested for plasma clearance in dog. Format: ADME, organism-based, Canis lupus familiaris.
Data set [9] concerns Rattus norvegicus. The experiment in a line: […] antihypertensive activity in renal hypertensive rat at 0.5 mg/kg after 5 hr of oral administration. Format: functional.
Data set [10] in a line: Half-life in plasma of dog. It is filed as ADME, organism-based, Canis lupus familiaris.
Data set [11] can be described thus: The compound was tested for volume of distribution in dog. Format: ADME, organism-based, Canis lupus familiaris. As to conditions: in vivo.
Data set [12] deals with Rattus norvegicus. Nature of the data set: […] antihypertensive activity in renal hypertensive rat at 0.5 mg/kg after 24 hr of oral administration. It is filed as functional.
Data set [13] has as its system Rattus norvegicus. The experiment in a line: […] antihypertensive activity in renal hypertensive rat at 0.5 mg/kg after 7 hr of oral administration. It is filed as functional.
Data set [14] in a line: The compound was tested for plasma clearance in rat. It is filed as ADME, organism-based.
The nature of data set [15]: The compound was tested for volume of distribution in rat. Format: ADME, organism-based. As to conditions: in vivo.
Data set [16] can be described thus: Bioavailability in rat. It is filed as ADME, organism-based. The settings on record: in vivo.
Data set [17] can be described thus: Half-life in plasma of rat. It is filed as ADME, organism-based.
The subject of data set [18] is Rattus norvegicus. Nature of the data set: In vivo antihypertensive activity in renal hypertensive rat at 1.0 mg/kg after 5 hr of oral administration.

`CCNC(=O)c1c(C2CC2)nc(CC)n1Cc1ccc2oc(-c3ccccc3C(=O)O)c(Br)c2c1`: the results for the Activity in the data set on Rattus norvegicus [1], with Rattus norvegicus [2] and with Rattus norvegicus [3] were 6, 4 and 0, respectively. At Angiotensin II receptor, the “Log Ki” value was -8.6.

For the compound `CCCCc1nc(Cl)c(C(=O)NC)n1Cc1ccc2oc(-c3ccccc3NS(=O)(=O)C(F)(F)F)c(Br)c2c1`, the figures for the Activity with Rattus norvegicus [1], with Rattus norvegicus [2] and in the data set with Rattus norvegicus [3] were -40, 7 and -45, respectively. For the same compound, the “Log Ki” value at Angiotensin II receptor is reported as -8.8.

As usually defined, the bioavailability is dose-corrected exposure relative to a reference, in per cent. The term Vd denotes a proportionality between amount in the body and measured concentration, not a real space. Read a high Vd as wide distribution into tissue. Usually clearance stands for a measure of how efficiently the substance is removed, as volume per time. A higher clearance goes with a high capacity for elimination. A word on the half-life: it is how long it takes for the measured level to halve. The low end stands for fast loss, the high end for slow loss. In data set [4], `CCCCc1nc(Cl)c(CO)n1Cc1ccc2oc(-c3ccccc3-c3nn[nH]n3)c(Br)c2c1` showed a bioavailability of 37%. This compound also displayed a Vd in data set [5] of 1.3 L/kg. This compound gave a clearance in data set [6] of 18 mL/min/kg. This compound had a half-life in [7] of 1 h.

Compound `CCc1nc(C2CC2)c(C(N)=O)n1Cc1ccc2oc(-c3ccccc3NS(=O)(=O)C(F)(F)F)c(Br)c2c1` yielded a clearance in [8] of 1.6 mL/min/kg. In addition, the values for the Activity in the data set with Rattus norvegicus [9], in the data set on Rattus norvegicus [12] and in the data set on Rattus norvegicus [13] were -66, -38 and -76, respectively. For the same compound, the half-life in data set [10] is 9.3 h. In data set [11], this compound registered a Vd of 0.9 L/kg. At Angiotensin II receptor, the “Log Ki” value is listed as -9.3.

In data set [14], `CCCc1nc(C)c(C(=O)NCC)n1Cc1ccc2oc(-c3ccccc3NS(=O)(=O)C(F)(F)F)c(Br)c2c1` showed a clearance of 29 mL/min/kg. The compound also returned a Vd in [15] of 11 L/kg. Further, the Activity was -33 in the data set with Rattus norvegicus [9], -30 in the data set on Rattus norvegicus [12] and -48 in the data set on Rattus norvegicus [13]. The same compound had a bioavailability in data set [16] of 90%. In data set [17], this compound had a half-life of 4.5 h. The “Log Ki” value on Angiotensin II receptor is given as -9.5.

Consider `CCc1nc(C2CC2)c(C(N)=O)n1Cc1ccc2oc(-c3ccccc3NS(=O)(=O)C(F)(F)F)c(Cl)c2c1`, for which the figures for the Activity in the data set with Rattus norvegicus [18], with Rattus norvegicus [12] and in the data set with Rattus norvegicus [13] were -57, -42 and -60, respectively. Moreover, the “Log Ki” value on Angiotensin II receptor is -8.9.

Regarding `CCc1nc(C2CC2)c(C(N)=O)n1Cc1ccc2oc(-c3ccccc3NS(=O)(=O)C(F)(F)F)c(C(F)(F)F)c2c1`, the Activity in the data set on Rattus norvegicus [18] is listed as -48; with Rattus norvegicus [12], -17; in the data set with Rattus norvegicus [13], -49. For the same compound, the “Log Ki” value on Angiotensin II receptor was -9.
